From publication PMC11187126, “Structure and dynamics of the pyroglutamylated RF-amide peptide QRFP receptor GPR103” (Nature Communications, 2024)
Read-outs that look alike come from different tables or passages of the source. No end group written: not given here.

Molecular target: T1, GPR103 E203^ECL2A/Q211^5.35E/E297^6.59A (Homo sapiens, UniProt Q96P65, E203A/E297A/Q211E)
T1 construct: we used human full-length QRFPR-encoding plasmids; expressed in transfected cells; host or cells: HEK293 cells (HEK293A in the flow cytometry section), pCAGGS vector
T1 sequence (Q96P65 1-431 E203A/Q211E/E297A): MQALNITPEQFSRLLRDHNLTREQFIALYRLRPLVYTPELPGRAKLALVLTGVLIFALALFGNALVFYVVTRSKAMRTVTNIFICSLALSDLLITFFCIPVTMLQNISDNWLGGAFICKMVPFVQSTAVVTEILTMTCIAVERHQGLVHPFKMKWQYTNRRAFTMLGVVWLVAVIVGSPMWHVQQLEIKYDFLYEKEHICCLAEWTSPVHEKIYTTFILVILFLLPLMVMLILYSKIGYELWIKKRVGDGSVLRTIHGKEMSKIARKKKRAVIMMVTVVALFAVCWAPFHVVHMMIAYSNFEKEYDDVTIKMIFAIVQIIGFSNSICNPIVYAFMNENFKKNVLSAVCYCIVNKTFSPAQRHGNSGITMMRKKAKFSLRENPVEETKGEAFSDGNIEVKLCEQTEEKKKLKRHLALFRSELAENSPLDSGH
Assay: TGFα shedding assay; Exp. level >WT (1:1)
Type: cell-based
Protocol: For the TGFα shedding assay and the flow cytometry analysis, we used human full-length QRFPR-encoding plasmids. Specifically, GPR103 was N-terminally modified with an HA signal sequence followed by a FLAG epitope and then a flexible linker ([…]; the FLAG epitope is underlined) and inserted into the pCAGGS vector. Plasmid encoding GPR103 mutants were generated using Quickchange Site-Directed Mutagensis kit (Agilent).
The TGFα shedding assay was performed as described previously with minor modifications. Plasmid transfection was performed in a 6-well plate with a mixture of 500 ng (per well in a 6-well plate) AP-TGFα-encoding plasmid and 200 ng GPR103-encoding plasmid. After 1-day culture, the transfected cells were harvested by trypsinization, pelleted by centrifugation at 190 × g for 5 min, and washed once with 5 mM HEPES (pH 7.4)-containing Hank’s Balanced Salt Solution (HBSS). After centrifugation, the cells were resuspended in 8 mL of the HEPES-containing HBSS. The cell suspension was seeded in a 96-well culture plate (cell plate) at a volume of 90 μL (per well hereafter) and incubated in a 37 °C incubator with 5% CO2 for 30 min. […] After spinning the cell plates at 190 × g for 2 min, 80 μL of conditioned media was transferred to an empty 96-well plate (conditioned media (CM) plate). Then, 80 μL of AP reaction solution (10 mM p-nitrophenylphosphate (p-NPP), 120 mM Tris-HCl (pH 9.5), 40 mM NaCl, and 10 mM MgCl2) was dispensed into the cell plates and the CM plates. Absorbance at 405 nm of the plates was measured using a microplate reader (SpectraMax 340 PC384, Molecular Devices) before and after 1-h incubation at room temperature. Ligand-induced AP-TGFα release was calculated by subtracting spontaneous AP-TGFα release signal from ligand-induced AP-TGFα release signal. The AP-TGFα release signals were fitted to a four-parameter sigmoidal concentration–response curve, using the Prism 10 software (GraphPad Prism). For each replicate experiment, the pEC50 parameter (negative logarithmic values of EC50 values) of the individual GPR103 mutants were normalized to that of the wild-type GPR103 performed in parallel, and resulting ∆pEC50 values were used to denote ligand response activity of the mutants. […]
Exp. le vel: WT (1:5 0)Exp. le vel: WT (1:5 0)Exp. le vel: WT (1:5 0)Exp. le vel: WT (1:2 0)Exp. le vel: WT (1:2 0)Exp. le vel: WT (1:1 0) […]
L1 4N - t e r mA F2 5N - t e r mA I 2 6N - t e r mA Y 2 9N - t e r mA C 9 82 .5 7A T10 22 .6 1A Exp . l eve l: WT (1 :5)Exp . l evel : >WT (1 :1)Exp. le vel: WT (1:2 0)Exp. le vel: WT (1:2 0)Exp. le vel: WT (1:5 0)Exp . l eve l: WT (1 :1) […]
Exp. le vel: WT (1:1 0)Exp. le vel: WT (1:2 0) C 1 1 83 .2 5AExp. le vel: WT (1:5 0)Exp. le vel: WT (1:5 0)Exp. le vel: WT (1:2 0)Exp . l eve l: WT (1 :5) […]
Exp. le vel: WT (1:5 0)Exp. le vel: WT (1:1 0)Exp. le vel: WT (1:5 0) E203ECL2AExp . l evel : >WT (1 :1)Exp. le vel: WT (1:5 0)Exp. le vel: WT (1:5 0) […]
Exp . l eve l: WT (1 :1) F28Exp. le vel: WT (1:5 0) C 2 8 56 .4 7AExp. le vel: WT (1:2 0) WExp. le vel: WT (1:2 0) F28Exp. le vel: WT (1:5 0)Exp . l evel : >WT (1 :1) […]
Exp. le vel: WT (1:5 0)Exp. le vel: WT (1:5 0) C 3 2 77 .4 8AExp . l eve l: WT (1 :5)Exp . l evel : >WT (1 :1)Exp . l evel : >WT (1 :1) […]
Suppl eme nt ary Figure 1 | Mutational analysis of GPR103. […]
mutants. Data are presented as mean values ± SEM, normally n=3-5; dots), each performed in triplicate. b-d Cell-surface expression (b) and QRFP26-in-duced activation of GPR103 (c, d) were analyzed by the flow cytometry and the TGFα shedding assay, respectively. From the concentration–response curves (a), Emax (c) and ΔpEC50 (d) values relative to the wild type were calculated. Colors in the mutant bars indicate an expression level matching to that of titrated wild type. Statistical analyses were performed using the ordinary one-way ANOVA followed by Dunnett tests with the expression-matched […]

TSGPLGNLAEELNGYSRKKGGFSFRF-NH2 [QRFP26]
Emax (Exp. #1): 103.81 % WT
Emax (Exp. #2): 100.88 % WT
Emax (Exp. #3): 112.76 % WT
Emax (mean, read-out: Emax): 106%
EC50 (n = 3): 427 nM
Emax (n = 3, read-out: Emax): 109 ± 2.9%
